Converted amounts (≈) assume the structure as drawn. Where two headings read alike, the source gives them in different places.
Tests used:
[1] = tested on: human colon adenocarcinoma (HT 29) cell; design: method as in doi:10.1007/s10973-016-5425-7; conditions: cited from earlier work
[2] = tested on: S. aureus 25923; test: MIC assay, liquid medium microdilution (planktonic growth); format: cell-based, Staphylococcus aureus
Procedure: (§1) The antibacterial assays were performed on Gram-negative (Escherichia coli ATCC 25922, E. coli 5, Pseudomonas aeruginosa ATCC 27853, P. aeruginosa ATCC 9027) and Gram-positive (Staphylococcus aureus ATCC 25923, S. aureus ATCC 6538, MRSA (Meticillin-resistant S. aureus) 388, ATCC, American Type Culture Collection) bacterial strains. Microbial suspensions (1.5 × 10^8 CFU/mL; colony forming units (CFU)) corresponding to 0.5 McFarland density obtained from 15 to 18-h bacterial cultures developed on solid media were used. The antimicrobial activity was tested on Mueller–Hinton agar medium.
(§2) The quantitative assay of the antimicrobial activity was performed by the liquid medium microdilution method, in 96-well multi-well plates, to establish the minimal inhibitory concentration (MIC). For this purpose, serial two-fold dilutions of the compounds ranging between 1.000 and 1.95 μg/mL were performed in a 200 μL volume of broth and each well was seeded with 50 μL microbial inoculums. Sterility control (wells containing only culture medium) and culture controls (wells containing culture medium seeded with the microbial inoculum) were used. The influence of the DMSO solvent was also quantified in a series of wells containing DMSO, diluted accordingly with the dilution scheme used for the complexes. The plates were incubated for 24 h at 37 °C, and MIC values were considered as the lowest concentration of the tested compound that inhibited the visible growth of the microbial overnight cultures.

[3] = tested on: MRSA; test: as above; format: cell-based, Staphylococcus aureus
Procedure: as §1, §2

[4] = tested on: S. aureus 6538; test: as above; format: cell-based, Staphylococcus aureus
Procedure: as §1, §2

[5] = tested on: E. coli 25922; test: MBEC assay, micro-titer method (biofilm); format: cell-based, Escherichia coli
Procedure: as §1
(§3) The assessment of the complexes’ influence on the microbial ability to colonize an inert substratum with the establishment of the minimal biofilm eradication concentration (MBEC) was performed by the micro-titer method, following previously described protocols. The absorbance at 490 nm was measured with an Apollo LB 911ELISA (Berthold Technologies GmbH & Co. KG, Waltham, MA, USA) reader. All experiments were performed in triplicates.

[6] = tested on: E. coli 5 ESBL; test: MBEC assay, micro-titer method (biofilm); format: cell-based, Escherichia coli
Procedure: as §1, §3

[7] = tested on: E. coli 25922; test: MIC assay, liquid medium microdilution (planktonic growth); format: cell-based, Escherichia coli
Procedure: as §1, §2

[8] = tested on: E. coli 5 ESBL; test: as above; format: cell-based, Escherichia coli
Procedure: as §1, §2

[9] = tested on: P. aeruginosa 9027; test: MBEC assay, micro-titer method (biofilm); format: cell-based, Pseudomonas aeruginosa
Procedure: as §1, §3

[10] = tested on: P. aeruginosa 27853; test: MBEC assay, micro-titer method (biofilm); format: cell-based, Pseudomonas aeruginosa
Procedure: as §1, §3

[11] = tested on: P. aeruginosa 9027; test: MIC assay, liquid medium microdilution (planktonic growth); format: cell-based, Pseudomonas aeruginosa
Procedure: as §1, §2

[12] = tested on: P. aeruginosa 27853; test: as above; format: cell-based, Pseudomonas aeruginosa
Procedure: as §1, §2

[13] = tested on: S. aureus 25923; test: MBEC assay, micro-titer method (biofilm); format: cell-based, Staphylococcus aureus
Procedure: as §1, §3

[14] = tested on: MRSA; test: MBEC assay, micro-titer method (biofilm); format: cell-based, Staphylococcus aureus
Procedure: as §1, §3

[15] = tested on: S. aureus 6538; test: MBEC assay, micro-titer method (biofilm); format: cell-based, Staphylococcus aureus
Procedure: as §1, §3

[16] = tested on: B16 cells; test: Phalloidin staining and cell imaging (cytoskeleton, nucleus); format: cell-based, Mouse; conditions: 24 h, 6 μg/mL
Procedure: (§4) Cytoskeleton actin filaments of BJ and B16 cells were stained with phalloidin-FITC (Sigma-Aldrich, USA) according to the manufacturer’s protocol. Briefly, cells were washed with PBS (5 min, 3 times), fixed for 5 min with 3% paraformaldehyde, washed three times with PBS, permeabilized with 0.1% Triton X-100 in PBS for 15 min, washed three times with PBS, stained with 20 μg mL^−1 phalloidin-FITC at room temperature for 1 h and washed again three times with PBS. Cell nucleus was stained with 8 μM of Hoechst 33342 solution for 10 min, washed three times with PBS and finally, mounted and sealed on glass slides with FluorSave™ Reagent (Merck Millipore, Germany). The fluorescence images were acquired using an Andor DSD2 Confocal Unit (Andor, Ireland), mounted on an epifluorescence microscope, Olympus BX-51 (Olympus, Germany), equipped with a 40x and 100x objective and an appropriate DAPI/Hoechst filter cube (excitation filter 390/40 m, dichroic mirror 405 nm and emission filter 452/45 nm) and GFP/FITC filter cube (excitation filter 466/40 nm, dichroic mirror 488 nm and emission filter 525/54 nm).

[17] = tested on: BJ cells; test: as above; format: cell-based, Human; conditions: 24 h, 6 μg/mL
Procedure: as §4

[18] = tested on: B16 (melanoma) tumor cells; test: MTT cell viability assay; format: cell-based, Mouse; conditions: any tested concentration (0–25 μg/mL), 24 and 48 h
Procedure: (§5) The cytotoxicity of ligand and copper(II) complexes was tested on normal BJ cell as well as on B16 (melanoma) tumor cells, which were grown for 48 h in culture medium containing the tested complexes in 0–25 μg/mL concentration range.
(§6) Human fibroblast cells (BJ-ATCC CRL-2522, Manassas, VA, USA) were grown in minimal essential medium (MEM) supplemented with 2 mM L-Glutamine, 10% fetal calf serum (FCS), 100 units/mL of penicillin and 100 µg/mL of streptomycin at 37 °C in a humidified incubator under an atmosphere containing 5% CO2. Mouse melanoma cells (B16-ATCC CRL-6475, Manassas, VA, USA) were grown in DMEM (Dulbecco’s Modified Eagle Medium) supplemented with similar reagents as MEM. All cell cultivation media and reagents were purchased from Biochrom AG (Berlin, Germany) and Sigma-Aldrich (Darmstadt, Germany).
(§7) Cell viability was evaluated using 3-(4,5-dimethylthiazol-2-yl)-2,5-diphenyltetrazolium bromide (MTT) assay, as described previously. First, the cells were seeded in 96-well plates (20,000 cells/well) and cultured for 24 h in medium. After overnight incubation, the medium was changed and the investigated sample in concentration varying from […] was added for 24 h. The negative control was represented by cells cultivated in medium without the investigated compounds. Following incubation, the medium was changed and the MTT solution was added to each well to a final concentration of 1 mg/mL and incubated for additional 4 h, at 37 °C. Finally, the medium was collected and DMSO was used to dissolve the insoluble formazan product. The absorbance of the samples was recorded at 570 nm using a plate reader Mithras 940 (Berthold). The data were corrected for the background and the percentage of viable cells was obtained using the equation:Cell viability = [(A570 of treated cells)/(A570 of untreated cells)] × 100%
(§8) The half-maximal inhibitory concentration (IC50) was determined by fitting the data with a logistical sigmoidal equation using the software Origin 8.1 from Microcal Inc. (Los Angeles, CA, USA).

[19] = tested on: normal BJ cell (human fibroblast); test: MTT cell viability assay; format: cell-based; conditions: any tested concentration (0–25 μg/mL), 24 and 48 h
Procedure: as §5, §6, §7, §8

[20] = Hemolytic activity (adapted ASTM F 756-00); format: cell-based; conditions: human red blood cells, 4 h at 37 °C, threshold 5% (ASTM F 756-00)
Procedure: The hemolytic activity of the compounds was determined using an adapted protocol of ASTM F 756–00 standard based on hemoglobin release from human red blood cells (hRBCs) resulting after cell lyses. Briefly, the blood samples were collected from healthy volunteers, diluted to a concentration of hemoglobin ~10 mg/mL with phosphate buffer saline (PBS) and then incubated with various concentrations of compounds for 4 h at 37 °C. After 4 h, the cells were centrifuged, the supernatant was collected, transferred into 96-well tissue culture plates and mixed with Drabkin reagent, which converts hemoglobin to cyanmethemoglobin (absorption peak at 540 nm). After 15 min, the absorbance of the samples was read at 570 nm using a plate reader. The obtained data was background corrected and used to calculate the hemolytic index as percentage of the hemoglobin released after the treatment with the tested compounds, relative to control samples. The hRBCs in PBS and distilled water were used as negative and positive controls.

[21] = P. aeruginosa 9027 (multi-drug-resistant), 24 h at 37 °C
[22] = P. aeruginosa 27853, 24 h at 37 °C
[23] = Staphylococcus aureus, S. aureus 25923, 24 h at 37 °C, read-out: MIC
[24] = Staphylococcus aureus, 24 h at 37 °C, read-out: MIC
[25] = Staphylococcus aureus, S. aureus 6538, 24 h at 37 °C, read-out: MIC
[26] = Escherichia coli, E. coli 25922, 24 h at 37 °C, read-out: MIC
[27] = Escherichia coli, E. coli 5 ESBL, 24 h at 37 °C, read-out: MIC
[28] = Pseudomonas aeruginosa, P. aeruginosa 9027 (multi-drug-resistant), 24 h at 37 °C, read-out: MIC
[29] = Pseudomonas aeruginosa, P. aeruginosa 27853, 24 h at 37 °C, read-out: MIC

## CC(=O)[O-].CC(=O)[O-].Cc1cc(-c2ccccc2)nc2ncnn12.[Cu+2] [[Cu(pmtp)(CH3COO)2]·0.5H2O]
[1]
  Antiproliferative effect: dose-dependent antiproliferative effect

## O.[Cu+2].[O-][Cl+3]([O-])([O-])[O-].[O-][Cl+3]([O-])([O-])[O-].c1cnc2c(c1)ccc1cccnc12.c1cnc2c(c1)ccc1cccnc12 [CuPP, [Cu(phen)2(OH2)](ClO4)2]
[2]; S. aureus 25923, 24 h at 37 °C
  MIC: 0.03 mM
[3]; 24 h at 37 °C
  MIC: 0.12 mM
[4]; S. aureus 6538, 24 h at 37 °C
  MIC: 0.03 mM
[5]
  MBEC value: 0.10 mM
[6]
  MBEC value: 0.30 mM
[7]; E. coli 25922, 24 h at 37 °C
  MIC: 0.03 mM
[8]; E. coli 5 ESBL, 24 h at 37 °C
  MIC: 0.03 mM
[9]
  MBEC value: 0.50 mM
[10]
  MBEC value: 0.50 mM
[11]; [21]
  MIC: 0.50 mM
[12]; [22]
  MIC: 0.50 mM
[13]
  MBEC value: 0.03 mM
[14]
  MBEC value: 0.10 mM
[15]
  MBEC value: 0.03 mM

## {[Cu(bpy)2(μ2OClO3)]·ClO4}n [CuBP]
[2]; S. aureus 25923, 24 h at 37 °C
  MIC: 0.27 mM
[3]; 24 h at 37 °C
  MIC: 0.27 mM
[4]; S. aureus 6538, 24 h at 37 °C
  MIC: 0.27 mM
[5]
  MBEC value: 0.54 mM
[6]
  MBEC value: 0.54 mM
[7]; E. coli 25922, 24 h at 37 °C
  MIC: 0.54 mM
[8]; E. coli 5 ESBL, 24 h at 37 °C
  MIC: 0.54 mM
[9]
  MBEC value: 1.09 mM
[10]
  MBEC value: 1.09 mM
[11]; [21]
  MIC: 1.09 mM
[12]; [22]
  MIC: 1.09 mM
[13]
  MBEC value: 0.14 mM
[14]
  MBEC value: 0.27 mM
[15]
  MBEC value: 0.14 mM

## c1ccc(-c2ccccn2)nc1 [bpy, 2,2′-bipyridine]
[2]; Staphylococcus aureus, 25923, 24 h
  MIC: 8 mM (≈ 1250 µg/mL)
[3]; Staphylococcus aureus, 24 h
  MIC: 8 mM (≈ 1250 µg/mL)
[4]; Staphylococcus aureus, 6538, 24 h
  MIC: 8 mM (≈ 1250 µg/mL)
[5]
  MBEC value: 8.00 mM
[6]
  MBEC value: 8.00 mM
[7]; Escherichia coli, 25922, 24 h
  MIC: 4 mM (≈ 625 µg/mL)
[8]; Escherichia coli, 5ESBL, 24 h
  MIC: 4 mM (≈ 625 µg/mL)
[9]
  MBEC value: 4.00 mM
[10]
  MBEC value: 8.00 mM
[11]; Pseudomonas aeruginosa, 9027, 24 h
  MIC: 4 mM (≈ 625 µg/mL)
[12]; Pseudomonas aeruginosa, 27853, 24 h
  MIC: 8 mM (≈ 1250 µg/mL)
[13]
  MBEC value: 4.00 mM
[14]
  MBEC value: 8.00 mM
[15]
  MBEC value: 8.00 mM

## c1cnc2c(c1)ccc1cccnc12 [phen, 1,10-phenanthroline]
[2]; [23]
  MIC: 7 mM (≈ 1260 µg/mL)
[3]; [24]
  MIC: 7 mM (≈ 1260 µg/mL)
[4]; [25]
  MIC: 7 mM (≈ 1260 µg/mL)
[5]
  MBEC value: 7.00 mM
[6]
  MBEC value: 3.50 mM
[7]; [26]
  MIC: 3.5 mM (≈ 631 µg/mL)
[8]; [27]
  MIC: 3.5 mM (≈ 631 µg/mL)
[9]
  MBEC value: 3.50 mM
[10]
  MBEC value: 7.00 mM
[11]; [28]
  MIC: 3.5 mM (≈ 631 µg/mL)
[12]; [29]
  MIC: 7 mM (≈ 1260 µg/mL)
[13]
  MBEC value: 7.00 mM
[14]
  MBEC value: 7.00 mM
[15]
  MBEC value: 7.00 mM

## Cc1cc(-c2ccccc2)nc2ncnn12 [pmtp, 5-phenyl-7-methyl-1,2,4-triazolo[1,5-a]pyrimidine]
[2]; [23]
  MIC: 6 mM (≈ 1260 µg/mL)
[3]; [24]
  MIC: 6 mM (≈ 1260 µg/mL)
[4]; [25]
  MIC: 3 mM (≈ 631 µg/mL)
[16]
  Cell morphology (cytoskeleton and nucleus): does not alter the morphology of the cells
[17]
  Cell morphology (cytoskeleton and nucleus): does not alter its morphology
[5]
  MBEC value: 6.00 mM
[6]
  MBEC value: 3.00 mM
[18]
  Effect on viability of B16 cells: did not affect the viability of the two cell lines
[7]; [26]
  MIC: 3 mM (≈ 631 µg/mL)
[8]; [27]
  MIC: 3 mM (≈ 631 µg/mL)
[9]
  MBEC value: 1.50 mM
[10]
  MBEC value: 3.00 mM
[19]
  Effect on viability of BJ cells: did not affect the viability of the two cell lines
[20]
  hemolysis at 4 h, 25 µg/mL: 0.61 ± 0.05%
[11]; [28]
  MIC: 3 mM (≈ 631 µg/mL)
[12]; [29]
  MIC: 3 mM (≈ 631 µg/mL)
[13]
  MBEC value: 6.00 mM
[14]
  MBEC value: 6.00 mM
[15]
  MBEC value: 3.00 mM

— paper PMC7504215, “Copper(II) Complexes with Mixed Heterocycle Ligands as Promising Antibacterial and Antitumor Species” (Molecules, 2020)
